Patent publication US6365616B1, “Methimazole derivatives and tautomeric cyclic thiones to treat autoimmune diseases” (Sentron Medical, Inc., priority 1998, dated 2002)
Marks after values point to notes of the source that are not given here.

Experiments:
(NZB x NZW)F1 mice = test: Prevention of proteinuria (SLE model) in female (NZB x NZW)F1 mice; type: in vivo; conditions: for Animals with proteinuria, 30-500 (mg/dl proteinuria) / Animals with proteinuria, >500 (mg/dl proteinuria) / Animals with proteinuria, Neg-Trace (mg/dl proteinuria) / development of proteinuria at 7.5 mos: oral; for Animals with proteinuria, 30-500 (mg/dl proteinuria) / Animals with proteinuria, >500 (mg/dl proteinuria) / Animals with proteinuria, Neg-Trace (mg/dl proteinuria): 0.05% MMI, 0.01% 5-phenylmethimazole, 0.05% 2-mercaptoimidazole; for significant numbers of immune complexes in kidneys (FIG. 15): immunohistology of frozen kidney sections; for development of proteinuria at 7.5 mos: compound 10 at a fifth the MMI concentration
Description: Female (NZB x NZW)F1 mice were obtained from Jackson Labs. Animals were followed with AMES 2855 Uristix (Miles) to semiquantitatively measure proteinuria. Proteinuria was taken as a measure of development of SLE and MMI suppression of proteinuria as suppression of renal complexes in kidney (Mozes et al., J. Clin Immunology 18:106-113 (1998)). At 7-8 mos. mice develop proteinuria reflecting renal disease. Treatment was from 2 mos to 6 mos of age. Treatment was oral. Each group had 8 animals to start.
In this experiment, immunohistology was performed in a blind fashion on 5 μm thick frozen kidney sections which were fixed and stained with FITC-conjugated goat antibodies to immunoglobulin G (γ chain specific) as described (Mozes, et al., Science 261:91-93 (1993); Mozes, E., et al., ibid (1998)). Compound 10, a tautomeric cyclic thione, and MMI are effective in preventing SLE in this experimental model.
Death of some animals in this experiment occurred for technical reasons, i.e. flooding of cages, handling, etc., in the last 2 mos. However, losses in the control group were similar to experimental groups. MMI, 2-mercaptoimidazole, and Compound 10 treatments were administered during the period between 2 and 6.25 months of age.

NOD mice = test: Prevention of glucosuria and diabetes in female NOD mice; type: in vivo, mouse; conditions: 5-phenylmethimazole at a fifth the MMI concentration
Description: Female NOD mice were also obtained from Jackson Labs, along with control mice from which the strain was developed (Makino et al., Exp. Anim. 29:1-13 (1980); Wicker, L. S., et al., Diabetes 35:855-860 (1986)). Animals showing urine Tes-Tape positivity greater than 1 + were considered positive and to have diabetes (Wicker, L. S., et al., ibid (1986)). At 8-16 weeks, […] of NOD mice develop glucosuria and diabetes according to the literature (Wicker, L. S., et al., ibid (1986)).
Table 20 presents results of the ability of Female NOD mice (5 animals were in each group) to develop glucosuria and diabetes when treated with MMI and compound 10 (5-phenylmethimazole) at a fifth the MMI concentration, by comparison to no treatment or treatment with 2-mercaptoimidazole. Mice were from Jackson Labs in this experiment. Animals showing urine Tes-Tape positivity greater than 1+ were considered positive and to have diabetes.
Compound 10 and MMI are therefore effective in preventing diabetes in the NOD mouse example of diabetes.

MHC class II RNA = test: Northern analysis of MHC class II RNA levels in FRTL-5 cells; type: cell-based, rat; conditions: 100 U/ml γ-interferon, 6H medium, 40 hours
thyroglobulin RNA = test: Northern analysis of thyroglobulin RNA levels in FRTL-5 cells; type: cell-based, rat; conditions: for % increase in TG RNA expression: 1 mM, 6H medium, 40 hours

SMILES	Animals with proteinuria, 30-500 (mg/dl proteinuria) ((NZB x NZW)F1 mice; 6 mos)	Animals with proteinuria, >500 (mg/dl proteinuria) ((NZB x NZW)F1 mice; 6 mos)	Animals with proteinuria, Neg-Trace (mg/dl proteinuria) ((NZB x NZW)F1 mice; 6 mos)	Animals with proteinuria, 30-500 (mg/dl proteinuria) ((NZB x NZW)F1 mice; 7.5 mos)	Animals with proteinuria, >500 (mg/dl proteinuria) ((NZB x NZW)F1 mice; 7.5 mos)	Animals with proteinuria, Neg-Trace (mg/dl proteinuria) ((NZB x NZW)F1 mice; 7.5 mos)	significant numbers of immune complexes in kidneys (FIG. 15) ((NZB x NZW)F1 mice)	development of proteinuria at 7.5 mos ((NZB x NZW)F1 mice)	development of glucosuria and diabetes by 12 weeks (NOD mice)	% inhibition of class II RNA expression (MHC class II RNA; 100 μM)	% inhibition of class II RNA expression (MHC class II RNA; 1 mM) [%]	% increase in TG RNA expression (thyroglobulin RNA) [%]	increase of TG RNA levels (thyroglobulin RNA; Table 17, 1 mM) [fold]	increase of TG RNA levels compared with MMI (thyroglobulin RNA; Table 17, 1 mM)	toxicity in vivo ((NZB x NZW)F1 mice; one-fifth the MMI concentration, NZB and NOD mouse experiments)
Cn1ccnc1S [Compound 1, 1-Methylimidazole-2-thiol]	0 of 8	0 of 8	8 of 8	2 of 5	0 of 5	3 of 5	not true	significantly prevented proteinuria	prevented glucosuria	None	29 ± 9	207 ± 10	~2	–	–
Cc1ncc([N+](=O)[O-])n1CCO [Compound 2, 2-Methyl-5-nitro-1-imidazole ethanol]	–	–	–	–	–	–	–	–	–	11 ± 10%	45 ± 13	–	–	–	–
Sc1ncc[nH]1 [Compound 3, 2-Mercaptoimidazole]	4 of 7	0 of 7	3 of 7	3 of 6	3 of 6	0 of 6	–	developed significant proteinuria	developed diabetes	–	–	–	–	–	–
CSc1nccn1C [Compound 7, S-Methylmethimazole]	–	–	–	–	–	–	–	–	–	22 ± 17%	62 ± 14	122 ± 14	–	no comparable increase	–
Cn1ccn(C)c1=S [Compound 8, N-Methylmethimazole]	–	–	–	–	–	–	–	–	–	32 ± 5%	59 ± 12	129 ± 7	–	no comparable increase	–
Cn1c(-c2ccccc2)cnc1S [Compound 10, 5-Phenylmethimazole]	0 of 8	0 of 8	8 of 8	1 of 6	0 of 6	5 of 6*	not true	significantly prevented proteinuria	prevented glucosuria	75 ± 15%	87 ± 4	–	–	no comparable increase	nontoxic
